Test results as given in PubChem BioAssay (NCI).
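Five compound concentrations were applied to cells in 96-well plates for 48 hours; endpoints were derived by simple linear interpolation of the resulting dose-response curve. Abbreviation: GI50, concentration required for 50% inhibition of growth. At the TGI there is no net growth.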

Assays:
Assay in all cases: growth of human tumour cells (NCI), 48 h
[1] = system: SNB-19 CNS
[2] = system: HCT-116 colon
[3] = system: SN12C renal
[4] = system: UACC-62 melanoma
[5] = system: SF-539 CNS
[6] = system: NCI-H226 lung
[7] = system: BT-549 breast
[8] = system: SR leukemia

Compound	TGI [1]	TGI [2]	TGI [3]	TGI [4]	TGI [5]	TGI [6]	TGI [7]	TGI [8]	GI50 [1]	GI50 [2]	GI50 [3]	GI50 [4]	GI50 [5]	GI50 [6]	GI50 [7]	GI50 [8]
COc1ccc2c(=O)c3ccoc3n(CC=C(C)C)c2c1	> 100 µM	> 100 µM	> 100 µM	> 100 µM	> 100 µM	> 100 µM	> 100 µM	> 100 µM	–	–	–	–	–	–	–	–
COC1CC2CCC(C)C(O)(O2)C(=O)C(=O)N2CCCCC2C(=O)OC(C(C)CC2CCC(O)C(OC)C2)CC(=O)C(C)C=C(C)C(O)C(OC)C(=O)C(C)CC(C)/C=C/C=C/C=C1C (stereo not given)	17 µM	11.3 µM	14.6 µM	11.6 µM	11 µM	9.71 µM	11 µM	15.2 µM	1.45 µM	4.34 µM	5.24 µM	0.0265 µM	< 0.005 µM	< 0.005 µM	0.00609 µM	< 0.005 µM
CC[C@H](Nc1nc(NCc2cnc(C)cc2C)c2ncn(C(C)C)c2n1)[C@@H](C)O	> 100 µM	> 100 µM	> 100 µM	1.88 µM	0.781 µM	0.934 µM	0.8 µM	–	0.318 µM	0.314 µM	0.351 µM	0.304 µM	0.24 µM	0.267 µM	0.226 µM	–
CCC/C(=N/N=C(N)N)c1ccc(NC(=O)c2cc3cc(OC)ccc3[nH]2)cc1	35.8 µM	–	33.7 µM	35 µM	30.8 µM	41.7 µM	53.5 µM	–	13.6 µM	–	14.1 µM	14.7 µM	8.65 µM	14.7 µM	13.5 µM	–
CC1=C2C[C@H]3[C@@H](CC[C@@H]4CC(NS(C)(=O)=O)CC[C@@]43C)[C@@H]2CC[C@@]2(C1)O[C@@H]1C[C@H](C)CN[C@H]1[C@H]2C (stereo not given in full)	27 µM	18.4 µM	23.4 µM	21.8 µM	25.9 µM	21.1 µM	26 µM	12 µM	12.5 µM	4.77 µM	10.4 µM	9.27 µM	12.9 µM	5.44 µM	12 µM	3.38 µM
Cc1ccc(-n2c3c(c4c(CN(C)C)c(O)ccc42)CCc2ccccc2C3=O)cc1	> 100 µM	27.8 µM	30.9 µM	30.9 µM	36 µM	37 µM	29.7 µM	–	> 100 µM	14.4 µM	16.3 µM	17 µM	19.3 µM	18.1 µM	14.9 µM	–
O=c1c2ccccc2n(C[C@H]2CO2)c2ccccc12	7.79 µM	8.78 µM	7.05 µM	3.11 µM	3.68 µM	–	6.08 µM	4.37 µM	2.3 µM	1.12 µM	1.8 µM	1.59 µM	1.77 µM	–	1.91 µM	0.302 µM
C/C(=N/Nc1nc2ccccc2n1C)c1ccccn1	> 100 µM	14.8 µM	23 µM	0.793 µM	1.94 µM	4.69 µM	25.5 µM	> 89.7 µM	0.327 µM	–	0.106 µM	0.14 µM	0.225 µM	0.0584 µM	0.223 µM	0.047 µM
O=c1ccn(C2OC(CO/N=C/c3ccc(O)c(O)c3O)C(O)C2O)c(=O)[nH]1 (stereo not given)	–	58.7 µM	38.7 µM	> 100 µM	> 100 µM	> 100 µM	> 100 µM	–	–	20.6 µM	20.1 µM	76.4 µM	52.1 µM	> 100 µM	68.4 µM	–
O=C(Nc1cccc(Cl)c1)c1ccc(NC2=C(Cl)C(=O)N(Cc3ccccc3)C2=O)cc1	> 59.2 µM	17.2 µM	23 µM	25.4 µM	36.3 µM	31 µM	31.5 µM	3.82 µM	21.5 µM	6.31 µM	7.77 µM	11.6 µM	20.4 µM	14.8 µM	8.33 µM	1.39 µM
O=C1CCCCCCCC/C=C\CC(c2ccco2)O1 (stereo not given)	40.3 µM	29.5 µM	69.9 µM	68.9 µM	> 100 µM	64.1 µM	> 100 µM	–	13.1 µM	15.1 µM	22.2 µM	14.6 µM	56 µM	21 µM	28.6 µM	–
Cc1cc(S(N)(=O)=O)c(S/C(CC(C)C)=N\Nc2ccc([N+](=O)[O-])cc2)cc1Cl	27.3 µM	13 µM	9.88 µM	8.89 µM	29.7 µM	7.77 µM	31.7 µM	6.26 µM	13.2 µM	3.53 µM	2.76 µM	3.13 µM	16.2 µM	2.82 µM	17.7 µM	1.84 µM
O=C(CNc1ccc2c(c1)C(=O)c1ccccc1C2=O)Nc1ccc2c(c1)C(=O)c1ccccc1C2=O	2.9 µM	0.711 µM	1 µM	1.95 µM	3.46 µM	1.44 µM	1.99 µM	–	1.45 µM	0.24 µM	0.293 µM	0.631 µM	1.78 µM	0.568 µM	0.641 µM	–
O=C(c1ccco1)c1nc2cc(Cl)ccc2[n+]([O-])c1C(F)(F)F	> 100 µM	> 100 µM	> 100 µM	> 100 µM	> 100 µM	> 100 µM	> 100 µM	44.3 µM	69 µM	40.6 µM	91 µM	40.7 µM	> 100 µM	33.2 µM	35.1 µM	17.1 µM
COc1ccc(/C=C\c2cc(OC)c(OC)c(OC)c2)cc1OC(=O)c1cccc(Cn2cc(CCOC(=O)[C@H](N)Cc3cn(C)c4ccccc34)nn2)c1	> 100 µM	38.7 µM	> 100 µM	24.2 µM	0.272 µM	38.9 µM	13.3 µM	2.66 µM	< 0.01 µM	< 0.01 µM	< 0.01 µM	< 0.01 µM	< 0.01 µM	< 0.0169 µM	< 0.01 µM	< 0.01 µM
O=C1/C(=C/c2ccccc2)CN(C(=O)c2cccnc2)C/C1=C\c1ccccc1	10.8 µM	0.88 µM	7.96 µM	5.5 µM	6.19 µM	9.79 µM	–	1.35 µM	1.49 µM	0.319 µM	2.39 µM	2.32 µM	2.14 µM	3.12 µM	–	0.311 µM

Compound	TGI [1]	TGI [2]	TGI [3]	TGI [4]	TGI [5]	TGI [6]	TGI [7]	TGI [8]	GI50 [1]	GI50 [2]	GI50 [3]	GI50 [4]	GI50 [5]	GI50 [6]	GI50 [7]	GI50 [8]
Cc1ccccc1N=Nc1ccc(NC(=O)c2ccnn2C)c(C)c1	> 100 µM	> 100 µM	> 100 µM	> 100 µM	> 100 µM	89.6 µM	> 100 µM	–	24.4 µM	5.99 µM	97.1 µM	97.2 µM	36.5 µM	15 µM	8.53 µM	–
COc1cc(-c2nn(-c3cccc(NC(=O)Nc4cc(C(F)(F)F)cc(C(F)(F)F)c4)c3)cc2-c2ccncc2)ccc1Cl	4.25 µM	2.44 µM	1.96 µM	1.5 µM	1.75 µM	11.7 µM	3.45 µM	2.99 µM	0.59 µM	0.442 µM	0.471 µM	0.496 µM	0.836 µM	1.14 µM	1.26 µM	0.8 µM
Cc1c(-c2c(-c3ccc(F)o3)sc3ncnc(O[C@H](Cc4ccccc4OCc4ccnn4CC(F)(F)F)C(=O)O)c23)ccc(OCCN2CCN(C)CC2)c1Cl	12.9 µM	9.23 µM	9.62 µM	3.13 µM	6.27 µM	15.5 µM	5.65 µM	2.01 µM	4.7 µM	3.9 µM	4.05 µM	0.249 µM	2.89 µM	5.89 µM	2.13 µM	0.162 µM
N#Cc1nc2c(S(=O)(=O)c3ccccc3)c(N)n(Cc3cccnc3)c2nc1C#N	72.4 µM	> 100 µM	> 100 µM	> 100 µM	23.7 µM	> 100 µM	37.3 µM	> 100 µM	21.9 µM	9.13 µM	26.6 µM	20.7 µM	3.25 µM	28.9 µM	4.6 µM	8.59 µM
O=C(CN1CCN(CCCOc2c(-c3ccccc3)oc3ccccc3c2=O)CC1)Nc1ccc(Cl)cc1C(=O)c1ccccc1Cl	> 100 µM	16.6 µM	18 µM	26.3 µM	22.2 µM	40.2 µM	40.5 µM	8.17 µM	8.09 µM	4.44 µM	4.98 µM	12.3 µM	6.68 µM	13.9 µM	14.1 µM	3.14 µM
CCn1c(CN2CCN(Cc3ccccc3)CC2)nc2cc(NC(=O)c3cccs3)ccc21	> 100 µM	38.7 µM	> 100 µM	31.5 µM	28.4 µM	41.5 µM	28.9 µM	39.1 µM	27.7 µM	14.4 µM	23.5 µM	14.3 µM	14.6 µM	15.2 µM	13.4 µM	12.6 µM
NC(N)=N/N=C\c1cccc(OCc2ccccc2)c1	23.3 µM	3.96 µM	17.6 µM	3.45 µM	20 µM	25.9 µM	28.4 µM	–	10.3 µM	1.84 µM	4.33 µM	1.67 µM	5.11 µM	6.74 µM	15 µM	–
CCc1c(C#N)c(S[C@@H](C(N)=O)c2ccccc2)nc(N(C)C)c1C#N	21.5 µM	> 100 µM	> 100 µM	–	> 100 µM	> 100 µM	–	–	3.46 µM	> 100 µM	6.81 µM	–	4.65 µM	4.76 µM	–	–
COc1ccc(-n2nnnc2-c2c[nH]c3c(F)cc(F)cc23)cc1	> 100 µM	> 100 µM	> 100 µM	> 100 µM	> 100 µM	> 100 µM	> 100 µM	–	75.5 µM	> 100 µM	86.3 µM	> 100 µM	52.8 µM	> 100 µM	> 100 µM	–
COc1cc2c3c(n(CCCN)c(=O)c2cc1OC)-c1cc2c(cc1/C3=C\CCN)OCO2	> 30.9 µM	–	3.81 µM	4.98 µM	4.41 µM	5.9 µM	–	> 100 µM	3.46 µM	0.989 µM	0.0627 µM	1.75 µM	1.62 µM	1.45 µM	–	0.166 µM
Fc1ccc2c(c1)c(-c1nc(-c3c[nH]c4ncccc34)cs1)cn2CCCN1CCCCC1	–	3.3 µM	3.31 µM	–	3.1 µM	–	14.5 µM	–	–	1.75 µM	1.74 µM	–	1.67 µM	–	3.72 µM	–
O=C1C(Cl)=C(Nc2cccc(Cl)c2)C(=O)N1Cc1ccccc1Cl	–	4.41 µM	8 µM	12.8 µM	15 µM	2.9 µM	26 µM	0.645 µM	–	1.03 µM	2.32 µM	3.05 µM	3.8 µM	0.296 µM	4.31 µM	0.26 µM
Cc1ccc(/C=C2/SC(Nc3nc(-c4csc(NC5=NC(=O)/C(=C\c6ccc(C)cc6)S5)n4)cs3)=NC2=O)cc1	> 50 µM	–	> 50 µM	13.6 µM	39.7 µM	28 µM	–	–	12.6 µM	–	5.54 µM	1.95 µM	13.5 µM	1.58 µM	–	–
O=C1c2cc3c(cc2-c2c1c1ccc(Cl)cc1c(=O)n2CCCNCCO)OCO3	–	0.588 µM	2.81 µM	1.6 µM	1.35 µM	1.55 µM	2.49 µM	–	–	0.104 µM	1.08 µM	0.0427 µM	0.242 µM	0.052 µM	0.941 µM	–
c1ccc2[nH]c(-c3ccc(NN=Nc4ccncc4)cc3)nc2c1	> 100 µM	> 100 µM	> 100 µM	> 100 µM	–	> 100 µM	> 100 µM	> 100 µM	> 100 µM	26.3 µM	> 100 µM	75.1 µM	–	> 100 µM	4.39 µM	47.7 µM
